Measurements taken from patent US8911953B2, “TDF-related compounds and analogs thereof, analogs and bioactive fragments” (Thrasos Innovation, Inc., priority 2005, dated 2014).
Positions of bridges follow the written chain, without caps; N, C: chain ends. No end group written: not given here.

What was measured:
HK-2 cells = assay: Cisplatin-induced apoptosis in HK-2 cells (Annexin V staining); assay type: cell-based, human; conditions: 10 uM cisplatin, 500 uM compound, prophylactic or therapeutic
Procedure: Apoptosis and cell viability are quantified using AnnexinV-FITC and propidium iodide staining of HK-2 cells following cisplatin treatment. Immortalized PTEC-derived HK-2 cells (ATCC number CRL-2190) are cultured in serum-free keratinocyte medium (GIBCO number 17005-042) supplemented with EGF and BPE for 48 hours (Ryan et al. 1994 Kidney Int 45:48-57). Medium is aspirated and cells are washed with PBS and incubated in the dark for 15 min at room temperature with 10 μl of media binding agent and 1.25 μl of FITC conjugated AnnexinV. Propidium iodide (10 μl) is added, and samples are analyzed immediately. Quantification of Annexin V-FITC and propidium iodide signals is performed by fluorescence microscopy (Axiovert 135; Carl Zeiss). Phase contrast images are observed using transmitted light. Apoptotic cells show cytoplasmic staining and viable cells remain unstained (FIG. 17).

[1] = system: rat osteosarcoma (17/2.8) cells; assay: Rat osteosarcoma (ROS) cell-based alkaline phosphatase assay; conditions: 0.02-200 uM, 2 days, relative to BMP-7 standard
Procedure: BMP interactions with Type I and Type II receptors can induce alkaline phosphatase activity, a marker for osteoblast activity, in ROS cells. An assay procedure as described in Maliakal, J. C., Asahina, I., Hauschka, P. V., and Sampath, T. K. (1994) Growth factors 11, 227-234, was used to determine the biological activities of TDFRP compounds. In a typical experiment, rat osteosarcoma (17/2.8) cells are plated in 96 well plates (3.0×10^4 cells/well) and incubated overnight at 37 C in 5-6% CO2 incubator. The next day, healthy and confluent cells are treated with increasing concentrations of BMP-7 standard (1-10,000 ng/ml) served as positive control or TDFRP compounds (0.02-200 uM) prepared in medium containing 1% FBS and incubated for 2 days at 37 C in 5-6% CO2 incubator. The cellular content of alkaline phosphatase activity is determined by the method of Reddi and Huggins (Reddi, A. H., and Huggins, C. B (1972) Proc. Natl. Acad. Sci. USA 69, 1601-1605). Enzyme estimations are performed in 96 well plates. Following removal of culture medium, cells are washed with pre-warmed PBS (150 ul) and incubated in 100 ul of pre-warmed 1% Triton X-100 for 30 minutes at 37 C. Plates are centrifuged for 10 minutes at full speed, and recovered samples (15 ul) are assayed for enzyme activity by adding 90 ul p-nitrophenyl phosphate (Sigma) as a substrate in 0.05 M glycine-NaOH buffer, pH 9.3 and incubating for 20 minutes at 37 C. The reaction is stopped by adding 75 ul of 0.2 N NaOH/well and absorbance at 405/490 nm is measured on a Dynatech MR 700 plate reader. Results are expressed as relative activities compared to a BMP-7 standard.
BMP interactions with Type I and Type II receptors can induce alkaline phosphatase activity, a marker for osteoblast activity, in ROS cells. An assay procedure as described earlier (Maliakal, J. C., Asahina, I., Hauschka, P. V., and Sampath, T. K. (1994) Growth factors 11, 227-234) was used to determine the biological activities of TDFRP compounds. In a typical experiment, rat osteosarcoma (17/2.8) cells are plated in 96 well plates (3.0×10^4 cells/well) and incubated overnight at 37° C. in 5-6% CO2 incubator. […] The cellular content of alkaline phosphatase activity is determined by the method of Reddi and Huggins (Reddi, A. H., and Huggins, C. B (1972) Proc. Natl. Acad. Sci. USA 69, 1601-1605). […] The reaction is stopped by adding 75 ul of 0.2 N NaOH/well and absorbance at 405/490 nm is measured on a Dynatech MR 700 plate reader. Results are expressed as relative activities compared to a BMP-7 standard.

## CYFDDSSNVLCKKYRS (disulfide 1-11 (inferred); not fully specified) [SEQ ID NO:45]
HK-2 cells
  cisplatin-induced apoptosis: inhibits
[1]
  induction of alkaline phosphatase activity: did not induce
